This note sets out measurements from US12084462B2, “Spiro bicyclic inhibitors of menin-MLL interaction” (Janssen Pharmaceutica NV, priority 2016, dated 2024).

“And” between values parts separate entries of the source, which are not always exact repeats. Equal values may be shown once. Read-outs that look alike come from different tables or passages of the source. Some results are limits rather than exact numbers.

The subject of assay [1] is KG1. The assay is described as follows: Proliferation assay (spheroid assay) KG1, control cell line. The assay is classed as cell-based. The following applies: Homo sapiens. As to the method:
(§1) The anti-proliferative effect of menin/MLL protein/protein interaction inhibitor test compounds was assessed in human leukemia cell lines. The cell lines MV-4-11 and MOLM14 harbor MLL translocations and express the MLL fusion proteins MLL-AF4 and MLL-AF9, respectively, as well as the wildtype protein from the second allele. […] K562 and KG1 were used as a control cell lines containing two MLL wildtype alleles in order to exclude compounds that display general cytotoxic effects.
(§2) MV-4-11 and MOLM14 were cultured in RPMI-1640 (Sigma Aldrich) supplemented with 10% fetal bovine serum (HyClone), 2 mM L-glutamine (Sigma Aldrich) and 50 μg/ml gentamycin (Gibco). K562 were propagated in RPMI-1640 (Sigma Aldrich) supplemented with 20% fetal bovine serum (HyClone), 2 mM L-glutamine (Sigma Aldrich) and 50 μg/ml gentamycin (Gibco). KG1 were cultured in Iscove's MDM (Gibco) supplemented with 20% fetal bovine serum (HyClone), 2 mM L-glutamine (Sigma Aldrich) and 50 μg/ml gentamycin (Gibco).
(§3) In order to assess the anti-proliferative effects, 1,500 MV-4-11, 300 MOLM14, 750 K562 or 1,300 KG1 cells were seeded in 200 μl media per well in 96-well round bottom, ultra-low attachment plates (Costar, catalogue number 7007). Cell seeding numbers were chosen based on growth curves to ensure linear growth throughout the experiment. Test compounds were added at different concentrations and the DMSO content was normalized to 0.3%. Cells were incubated for 8 d at 37° C. and 5% CO2. Spheroid like growth was monitored in real-time by live-cell imaging (IncuCyteZOOM, Essenbio, 4× objective) acquiring one image every four hours for 8 d. Confluence (%) as a measure of spheroid size was determined using an integrated analysis tool.
(§4) In order to determine the cumulative effect of the test compounds over time, the area under the curve (AUC) in a plot of confluence against time was calculated. Confluence at the beginning of the experiment (t=0) was used as baseline for the AUC calculation.
(§5) Absolute IC50 values were calculated according to the following procedure: % Control=(AUC sample/AUC control)*100 AUC control=mean AUC of control values (cells without compound/DMSO as vehicle control)
(§6) A non-linear curve fit was applied using the least squares (ordinary) fit method to the plot of % control versus compound concentration. Based on this, the absolute IC50 value (half maximal inhibitory concentration of the test compound causing an anti-proliferative effect of 50% relative to the vehicle control) was calculated.

The subject of assay [2] is K562. The assay is described as follows: Proliferation assay (spheroid assay) K562, control cell line. The assay is classed as cell-based. As to conditions: Homo sapiens. On the procedure:
as §1, §2, §3, §4, §5, §6

The subject of assay [3] is MOLM14. The assay is described as follows: Proliferation assay (spheroid assay) MOLM14. It counts as cell-based, human. The method, boiled down: (§7)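 Cells grown as spheroids in ultra-low attachment round-bottom wells with compound at varied concentrations (0.3% DMSO) for 8 d at 37 °C; confluence imaged every 4 h. AUC of confluence over time (t=0 baseline) expressed as % of vehicle control; absolute IC50 from nonlinear least-squares fit.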

Assay [4] has as its target T1, menin (Homo sapiens, UniProt O00255, T541A).
T1 sequence (O00255 with tags, fused parts or gaps T541A): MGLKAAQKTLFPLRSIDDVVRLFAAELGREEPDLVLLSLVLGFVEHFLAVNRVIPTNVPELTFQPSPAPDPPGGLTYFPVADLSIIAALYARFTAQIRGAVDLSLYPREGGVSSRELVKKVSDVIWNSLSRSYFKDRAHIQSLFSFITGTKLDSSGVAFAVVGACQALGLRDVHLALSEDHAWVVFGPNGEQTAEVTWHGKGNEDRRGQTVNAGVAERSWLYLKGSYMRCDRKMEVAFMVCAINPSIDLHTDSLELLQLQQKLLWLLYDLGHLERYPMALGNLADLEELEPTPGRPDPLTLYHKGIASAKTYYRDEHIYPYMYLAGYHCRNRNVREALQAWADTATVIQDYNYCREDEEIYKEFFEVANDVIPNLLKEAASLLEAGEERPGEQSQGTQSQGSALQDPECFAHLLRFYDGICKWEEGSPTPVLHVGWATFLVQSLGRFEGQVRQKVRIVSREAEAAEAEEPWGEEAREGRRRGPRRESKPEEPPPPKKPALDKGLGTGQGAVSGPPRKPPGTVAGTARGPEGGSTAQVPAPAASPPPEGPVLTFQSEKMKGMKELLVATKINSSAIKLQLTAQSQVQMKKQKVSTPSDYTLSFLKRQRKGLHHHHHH
The assay is described as follows: Menin/MLL fluorescence polarization (FP) assay. It counts as binding. The method, boiled down:
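Compound preincubated 10 min with 100 nM menin, then 5 nM FITC-MBM1 peptide added for 15 min at ambient temperature; pH 7.5 Tris buffer, 0.625% DMSO final. FP read at 485/520 nm. % inhibition versus saturating-competitor and no-competitor controls; 11-point three-fold dilutions from 31 μM.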
On the technique in general: Polarisation of emitted light reports the rotation of a fluorescent probe.

Assay [5] relates to MV-4-11. The assay is described as follows: Proliferation assay (spheroid assay) MV-4-11. It counts as cell-based, human. The following applies: Homo sapiens. The method, boiled down: as §7
[6] abbreviates: KG-1, KG1 control cell line, averaged values, read-out: Spheroid assay KG1 (IC50 (μM)).
Where [7] appears, read: K562 control cell line, averaged values, read-out: Spheroid assay K562 (IC50 (μM)).
Where [8] appears, read: Homo sapiens, MOLM-14, MOLM14, averaged values, read-out: Spheroid assay MOLM14 (IC50 (μM)).
Setting [9] is: MV4-11, MV-4-11, averaged values, read-out: Spheroid assay MV-4-11 (IC50 (μM)).

`FC(F)(F)Cc1cc2c(N3CC[C@]4(CCN(Cc5ccccc5)C4)C3)ncnc2s1` (single isomer, unassigned) [Compound 20b]: the half-maximal inhibitory concentration (IC50) in assay [1] (KG-1, 192 h, KG1 (MLL wildtype control), 8 d, absolute IC50 from AUC of confluence, individual measurements (not averaged), read-out: (2) Spheroid assay KG1 (IC50 (μM))) was greater than 15 µM; in assay [2] (192 h, K562 (MLL wildtype control), 8 d, absolute IC50 from AUC of confluence, individual measurements (not averaged), read-out: (2) Spheroid assay K562 (IC50 (μM))) it was greater than 15 µM; in assay [3] (MOLM14 (MLL-AF9), 8 d, absolute IC50 from AUC of confluence, individual measurements (not averaged), read-out: (2) Spheroid assay MOLM14 (IC50 (μM))) it was > 15 µM and 2.5 µM; in assay [4] (100 nM menin, 5 nM FITC-MBM1 peptide, individual measurements (not averaged), read-out: (1) Menin FP assay (IC50 (μM))), 0.038 µM; in assay [5] (MV4-11, 192 h, MV-4-11 (MLL-AF4), 8 d, absolute IC50 from AUC of confluence, individual measurements (not averaged), read-out: (2) Spheroid assay MV-4-11 (IC50 (μM))) it was 0.51 µM.
`C[C@@H]1CN[C@H](C(=O)N2CC3(C2)CN(c2ncnc4sc(CC(F)(F)F)cc24)C3)C1` [Compound 82]: the IC50 in assay [1] (setting [6]) was greater than 15 µM; in assay [2] (setting [7]), greater than 15 µM; in assay [3] (setting [8]), 1.8 µM; in assay [5] (setting [9]), 0.38 µM.
Turning to `CC(C)[C@H](C1CCNCC1)N1CC2(CCN(c3ncnc4sc(CC(F)(F)F)cc34)C2)C1` [Compound 168], the half-maximal inhibitory concentration (IC50) in assay [1] (setting [6]) is 15 µM; in assay [2] (setting [7]), 11.9 µM; in assay [3] (setting [8]), 0.86 µM; in assay [5] (setting [9]) it was 0.19 µM.
In the same order, the values of `CC(C)[C@H](C1CCOCC1)N1CC2(CCN(c3ncnc4sc(CC(F)(F)F)cc34)C2)C1` [Compound 193] are greater than 15 µM, greater than 15 µM, 1.7 µM and 0.65 µM.
With `CC(C)[C@H](C1CN(C)C1)N1CC2(CCN(c3ncnc4sc(CC(F)(F)F)cc34)C2)C1` [Compound 196], the IC50 in assay [1] (setting [6]) is greater than 15 µM; in assay [2] (setting [7]) it was greater than 15 µM; in assay [3] (setting [8]), 1.1 µM; in assay [5] (setting [9]) it was 0.3 µM.
As to `CC[C@H](c1cnn(C)c1)N1CC2(CCN(c3ncnc4sc(CC(F)(F)F)cc34)C2)C1` [Compound 220], the IC50 in assay [1] (setting [6]) was greater than 15 µM; in assay [2] (setting [7]), greater than 15 µM; in assay [3] (setting [8]), 4.7 µM; in assay [5] (setting [9]), 0.65 µM.
`CC(C)C[C@H](c1cnn(C)c1)N1CC2(CCN(c3ncnc4sc(CC(F)(F)F)cc34)C2)C1` [Compound 247]: the half-maximal inhibitory concentration (IC50) in assay [1] (setting [6]) was greater than 15 µM; in assay [2] (setting [7]) it was greater than 15 µM; in assay [3] (setting [8]), 2.1 µM; in assay [5] (setting [9]), 0.45 µM.
With `CC(C)[C@H](C1CNC1)N1CC2(CCN(c3ncnc4sc(CC(F)(F)F)cc34)C2)C1` [Compound 273], the IC50 in assay [1] (setting [6]) is 12 µM; in assay [2] (setting [7]) it was 10.3 µM; in assay [3] (setting [8]) it was 0.86 µM; in assay [4] (averaged values over all measurements, read-out: Menin FP assay (IC50 (μM))), 0.021 µM; in assay [5] (setting [9]), 0.08 µM.
Take `CC(C)[C@H](c1cnn(C)c1)N1CC2(CCN(c3ncnc4sc(CC(F)(F)F)cc34)C2)C1` [Compound 274]: the IC50 was greater than 15 µM in assay [1] (setting [6]), greater than 15 µM in assay [2] (setting [7]), 2.3 µM in assay [3] (setting [8]) and 0.36 µM in assay [5] (setting [9]).

As a reminder, the IC50 is the concentration that gives 50% inhibition.
